Test results taken from PubChem BioAssay AID2060498 (Molecular Pharmacology Branch, DTP, NCI, 2025).

System: 171881-019-R-J1-PDC tumor spheroids, viability
Experiment: Anticancer human tumor 171881-019-R-J1-PDC patient-derived invasive breast carcinoma cell line growth inhibition [GQUAD]
Details: spheroids with HUVEC and MSC; for IC50: curve of first compound; for viability, T/C: stronger effect = lower value
Method in brief: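 Viability of tumor cells grown as complex spheroids with endothelial and stromal cells, exposed to drug combinations. Top concentration at or near clinical Cmax (else 10 microM), diluted in half-log increments.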

[1] = second compound 0.0316 µM, first compound 0.0316 µM
[2] = second compound 0.0316 µM, first compound 0.1 µM
[3] = second compound 0.0316 µM, first compound 0.316 µM
[4] = second compound 0.0316 µM, first compound 1 µM
[5] = second compound 0.0316 µM, first compound 3.16 µM
[6] = second compound 0.0316 µM, first compound 10 µM
[7] = second compound 0.1 µM, first compound 0.0316 µM
[8] = second compound 0.1 µM, first compound 0.1 µM
[9] = second compound 0.1 µM, first compound 0.316 µM
[10] = second compound 0.1 µM, first compound 1 µM
[11] = second compound 0.1 µM, first compound 3.16 µM
[12] = second compound 0.1 µM, first compound 10 µM
[13] = second compound 0.316 µM, first compound 0.0316 µM
[14] = second compound 0.316 µM, first compound 0.1 µM
[15] = second compound 0.316 µM, first compound 0.316 µM
[16] = second compound 0.316 µM, first compound 1 µM
[17] = second compound 0.316 µM, first compound 3.16 µM
[18] = second compound 0.316 µM, first compound 10 µM
[19] = second compound 1 µM, first compound 0.0316 µM
[20] = second compound 1 µM, first compound 0.1 µM
[21] = second compound 1 µM, first compound 0.316 µM
[22] = second compound 1 µM, first compound 1 µM
[23] = second compound 1 µM, first compound 3.16 µM
[24] = second compound 1 µM, first compound 10 µM
[25] = second compound 3.16 µM, first compound 0.0316 µM
[26] = second compound 3.16 µM, first compound 0.1 µM
[27] = second compound 3.16 µM, first compound 0.316 µM
[28] = second compound 3.16 µM, first compound 1 µM
[29] = second compound 3.16 µM, first compound 3.16 µM
[30] = second compound 3.16 µM, first compound 10 µM
[31] = second compound 10 µM, first compound 0.0316 µM
[32] = second compound 10 µM, first compound 0.1 µM
[33] = second compound 10 µM, first compound 0.316 µM
[34] = second compound 10 µM, first compound 1 µM
[35] = second compound 10 µM, first compound 3.16 µM
[36] = second compound 10 µM, first compound 10 µM
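Wherever viability, T/C is given: 100% = DMSO vehicle control viability.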

Structure (SMILES): CC(C)(O)C1CCC(Nc2ccc3ncc(-c4cccc(C(F)(F)F)c4)n3n2)CC1 (stereo unspecified) + CN(C)c1ccc(Nc2c3ccc(NC(=O)CCN4CCCC4)cc3nc3cc(NC(=O)CCN4CCCC4)ccc23)cc1
- IC50 (second compound 0.0316 µM): 1860 nM
- IC50 (second compound 0.1 µM): 1840 nM
- IC50 (second compound 0.316 µM): < 31.6 nM
- IC50 (second compound 1 µM): < 31.6 nM
- IC50 (second compound 3.16 µM): < 31.6 nM
- IC50 (second compound 10 µM): < 31.6 nM
- viability, T/C [1]: 99.9%
- viability, T/C [2]: 103%
- viability, T/C [3]: 102%
- viability, T/C [4]: 73.8%
- viability, T/C [5]: 30%
- viability, T/C [6]: 25.6%
- viability, T/C [7]: 94.5%
- viability, T/C [8]: 99.5%
- viability, T/C [9]: 101%
- viability, T/C [10]: 77.1%
- viability, T/C [11]: 24.3%
- viability, T/C [12]: 27.6%
- viability, T/C [13]: 43.7%
- viability, T/C [14]: 47.2%
- viability, T/C [15]: 39.3%
- viability, T/C [16]: 22.2%
- viability, T/C [17]: 9.07%
- viability, T/C [18]: 6.72%
- viability, T/C [19]: 3.24%
- viability, T/C [20]: 2.74%
- viability, T/C [21]: 3.28%
- viability, T/C [22]: 1%
- viability, T/C [23]: 0.4%
- viability, T/C [24]: 0.21%
- viability, T/C [25]: 0.19%
- viability, T/C [26]: 0.18%
- viability, T/C [27]: 0.29%
- viability, T/C [28]: 0.13%
- viability, T/C [29]: 0.43%
- viability, T/C [30]: 0.14%
- viability, T/C [31]: 0.15%
- viability, T/C [32]: 0.47%
- viability, T/C [33]: 0.23%
- viability, T/C [34]: 0.13%
- viability, T/C [35]: 0.32%
- viability, T/C [36]: 0.17%

Structure (SMILES): Cc1[nH]c2ccccc2c1CCNCc1ccc(/C=C/C(=O)NO)cc1 + CN(C)c1ccc(Nc2c3ccc(NC(=O)CCN4CCCC4)cc3nc3cc(NC(=O)CCN4CCCC4)ccc23)cc1
- IC50 (second compound 0.0316 µM): 55 nM
- IC50 (second compound 0.1 µM): 51.4 nM
- IC50 (second compound 0.316 µM): < 0.999 nM
- IC50 (second compound 1 µM): < 0.999 nM
- IC50 (second compound 3.16 µM): < 0.999 nM
- IC50 (second compound 10 µM): < 0.999 nM
- viability, T/C (second compound 0.0316 µM, first compound 0.000999 µM): 96.9%
- viability, T/C (second compound 0.0316 µM, first compound 0.00316 µM): 104%
- viability, T/C (second compound 0.0316 µM, first compound 0.00999 µM): 89.9%
- viability, T/C [1]: 76.9%
- viability, T/C (second compound 0.0316 µM, first compound 0.0999 µM): 22%
- viability, T/C [3]: 0.39%
- viability, T/C (second compound 0.1 µM, first compound 0.000999 µM): 95.4%
- viability, T/C (second compound 0.1 µM, first compound 0.00316 µM): 75.1%
- viability, T/C (second compound 0.1 µM, first compound 0.00999 µM): 84.5%
- viability, T/C [7]: 71.8%
- viability, T/C (second compound 0.1 µM, first compound 0.0999 µM): 20.2%
- viability, T/C [9]: 0.39%
- viability, T/C (second compound 0.316 µM, first compound 0.000999 µM): 46.9%
- viability, T/C (second compound 0.316 µM, first compound 0.00316 µM): 45.1%
- viability, T/C (second compound 0.316 µM, first compound 0.00999 µM): 48.8%
- viability, T/C [13]: 28%
- viability, T/C (second compound 0.316 µM, first compound 0.0999 µM): 10.8%
- viability, T/C [15]: 0.26%
- viability, T/C (second compound 1 µM, first compound 0.000999 µM): 4.23%
- viability, T/C (second compound 1 µM, first compound 0.00316 µM): 3.43%
- viability, T/C (second compound 1 µM, first compound 0.00999 µM): 4.51%
- viability, T/C [19]: 1.92%
- viability, T/C (second compound 1 µM, first compound 0.0999 µM): 0.8%
- viability, T/C [21]: 0.38%
- viability, T/C (second compound 3.16 µM, first compound 0.000999 µM): 0.41%
- viability, T/C (second compound 3.16 µM, first compound 0.00316 µM): 0.27%
- viability, T/C (second compound 3.16 µM, first compound 0.00999 µM): 0.37%
- viability, T/C [25]: 0.25%
- viability, T/C (second compound 3.16 µM, first compound 0.0999 µM): 0.14%
- viability, T/C [27]: 0.13%
- viability, T/C (second compound 10 µM, first compound 0.000999 µM): 0.18%
- viability, T/C (second compound 10 µM, first compound 0.00316 µM): 0.19%
- viability, T/C (second compound 10 µM, first compound 0.00999 µM): 0.16%
- viability, T/C [31]: 0.44%
- viability, T/C (second compound 10 µM, first compound 0.0999 µM): 0.27%
- viability, T/C [33]: 0.17%

Structure (SMILES): O=C(NO)c1cnc(N2CCN(S(=O)(=O)c3ccc4ccccc4c3)CC2)nc1 + CN(C)c1ccc(Nc2c3ccc(NC(=O)CCN4CCCC4)cc3nc3cc(NC(=O)CCN4CCCC4)ccc23)cc1
- IC50 (second compound 0.0316 µM): 197 nM
- IC50 (second compound 0.1 µM): 215 nM
- IC50 (second compound 0.316 µM): < 31.6 nM
- IC50 (second compound 1 µM): < 31.6 nM
- IC50 (second compound 3.16 µM): < 31.6 nM
- IC50 (second compound 10 µM): < 31.6 nM
- viability, T/C [1]: 101%
- viability, T/C [2]: 73.7%
- viability, T/C [3]: 35.6%
- viability, T/C [4]: 0.61%
- viability, T/C [5]: 0.11%
- viability, T/C [6]: 0.11%
- viability, T/C [7]: 86.7%
- viability, T/C [8]: 80.1%
- viability, T/C [9]: 34.8%
- viability, T/C [10]: 0.74%
- viability, T/C [11]: 0.22%
- viability, T/C [12]: 0.38%
- viability, T/C [13]: 44.2%
- viability, T/C [14]: 37.8%
- viability, T/C [15]: 10.6%
- viability, T/C [16]: 0.25%
- viability, T/C [17]: 0.08%
- viability, T/C [18]: 0.21%
- viability, T/C [19]: 3.24%
- viability, T/C [20]: 1.83%
- viability, T/C [21]: 0.75%
- viability, T/C [22]: 0.1%
- viability, T/C [23]: 0.06%
- viability, T/C [24]: 0.31%
- viability, T/C [25]: 0.23%
- viability, T/C [26]: 0.4%
- viability, T/C [27]: 0.28%
- viability, T/C [28]: 0.06%
- viability, T/C [29]: 0.08%
- viability, T/C [30]: 0.1%
- viability, T/C [31]: 0.07%
- viability, T/C [32]: 0.12%
- viability, T/C [33]: 0.38%
- viability, T/C [34]: 0.34%
- viability, T/C [35]: 0.29%
- viability, T/C [36]: 0.15%
